Our source for the IC50 values is US12545685B2 (Daiichi Sankyo Company, Limited, priority 2011, dated 2026).

A word on the IC50: it is the concentration at which inhibition is half-maximal.

This assay deals with T1, Mdm2/p53 binding (GST-Mdm2 / His-p53) (Homo sapiens, UniProt Q00987, L33E).
T1 construct: Mdm2 partial protein having Mdm2 amino acids at positions 25 to 108
T1 sequence (Q00987 25-108 L33E): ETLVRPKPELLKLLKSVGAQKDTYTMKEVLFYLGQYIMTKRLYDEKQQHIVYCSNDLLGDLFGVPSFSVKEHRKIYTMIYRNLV
Nature of the assay: Mdm2/p53 binding assay (HTRF, His-p53 and GST-Mdm2). Particulars: His-p53 (aa 1-132) and GST-Mdm2 (aa 25-108, L33E) 6.25 nM each; 25°C, 1 hour; values given as ranges. In short, it runs like this:
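Binding was detected by HTRF (ex 320 nm, em 620/665 nm) after 1 h at 25 °C, using Eu-cryptate anti-GST and XL665 anti-His antibodies. The protein pair was GST-Mdm2 (residues 25–108, L33E) with His-p53 (residues 1–132), each 6.25 nM in the protein dilution. T/C used no-compound control and no-p53 background, and IC50 came from sigmoid fitting.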
In turn, `CN(C)C(=O)[C@@H]1CC[C@@H](NC(=O)[C@@H]2NC3(CCC(C)(C)CC3)[C@@]3(C(=O)Nc4nc(Cl)ccc43)[C@H]2c2ccnc(Cl)c2F)CO1` [Example 104, (3′R, 4′S,5′R)-6″-chloro-4′-(2-chloro-3-fluoropyridin-4-yl)-N-[(3R,6S)-6-(dimethylcarbamoyl)tetrahydro-2H-pyran-3-yl]-4,4-dimethyl-2″-oxo-1″,2″-dihydrodispiro[cyclohexane-1,2′-pyrrolidine-3′,3″-pyrrolo[2,3-b]pyridine]-5′-carboxamide] registered an IC50 of 1 to 50 nM.

Regarding `C[C@H]1O[C@H](CO)CC[C@H]1NC(=O)[C@@H]1NC2(CCC(C)(C)CC2)[C@@]2(C(=O)Nc3cc(Cl)ccc32)[C@H]1c1ccnc(Cl)c1F` [Example 105, (3′R, 4′S,5′R)-6″-chloro-4′-(2-chloro-3-fluoropyridin-4-yl)-N-[(2R,3R,6S)-6-(hydroxymethyl)-2-methyltetrahydro-2H-pyran-3-yl]-4,4-dimethyl-2″-oxo-1″,2″-dihydrodispiro[cyclohexane-1,2′-pyrrolidine-3′,3″-indole]-5′-carboxamide], the IC50 was in the range of 1 to 50 nM.

The compound `CC1(C)CCC2(CC1)N[C@@H](C(=O)N[C@@H]1CC[C@@H](C(=O)N3CCC3)OC1)[C@H](c1ccnc(Cl)c1F)[C@]21C(=O)Nc2cc(Cl)ccc21` [Example 106, (3′R, 4+S,5′R)—N-[(3R,6S)-6-(azetidin-1-ylcarbonyl)tetrahydro-2H-pyran-3-yl]-6″-chloro-4′-(2-chloro-3-fluoropyridin-4-yl)-4,4-dimethyl-2″-oxo-1″,2″-dihydrodispiro[cyclohexane-1,2′-pyrrolidine-3′,3″-indole]-5H-carboxamide] had an IC50 of 1 to 50 nM.

Compound `CCNC(=O)[C@H]1C[C@H](NC(=O)[C@@H]2NC3(CCC(C)(C)CC3)[C@@]3(C(=O)Nc4cc(Cl)ccc43)[C@H]2c2ccnc(Cl)c2F)C1` [Example 118, (3′R,4′S,5′R)-6″-chloro-4′-(2-chloro-3-fluoropyridin-4-yl)-N-[trans-3-(ethylcarbamoyl)cyclobutyl]-4,4-dimethyl-2″-oxo-1″,2″-dihydrodispiro[cyclohexane-1,2′-pyrrolidine-3′,3″-indole]-5′-carboxamide] registered a 50% inhibitory concentration (IC50) of 1 to 50 nM.

With `CC1(C)CCC2(CC1)N[C@@H](C(=O)N[C@H]1C[C@H](CO)C1)[C@H](c1ccnc(Cl)c1F)[C@]21C(=O)Nc2cc(Cl)ccc21` [Example 119, (3′R,4′S,5′R)-6″-chloro-4′-(2-chloro-3-fluoropyridin-4-yl)-N-[trans-3-(hydroxymethyl)cyclobutyl]-4,4-dimethyl-2″-oxo-1″,2″-dihydrodispiro[cyclohexane-1,2′-pyrrolidine-3′,3″-indole]-5′-carboxamide], the concentration for half-maximal inhibition (IC50) was in the range of 1 to 50 nM.

Take `CC1(C)CCC2(CC1)N[C@@H](C(=O)N[C@H]1C[C@H](C(=O)NC3CCOCC3)C1)[C@H](c1ccnc(Cl)c1F)[C@]21C(=O)Nc2cc(Cl)ccc21` [Example 120, (3′R, 4′S,5′R)-6″-chloro-4′-(2-chloro-3-fluoropyridin-4-yl)-4,4-dimethyl-2″-oxo-N-[trans-3-(tetrahydro-2H-pyran-4-ylcarbamoyl)cyclobutyl]-1″,2″-dihydrodispiro[cyclohexane-1,2′-pyrrolidine-3′,3″-indole]-5′-carboxamide]: the IC50 was in the range of 1 to 50 nM.

In the case of `NC(=O)[C@@H]1CC[C@@H](NC(=O)[C@@H]2NC3(CC(CF)(CF)C3)[C@@]3(C(=O)Nc4cc(Cl)ccc43)[C@H]2c2cccc(Cl)c2F)CO1` [Example 122, (3′R, 4′S,5′R)—N-[(3R, 6S)-6-carbamoyltetrahydro-2H-pyran-3-yl]-6″-chloro-4′-(3-chloro-2-fluorophenyl)-3,3-bis(fluoromethyl)-2″-oxo-1″,2″-dihydrodispiro[cyclobutane-1,2-pyrrolidine-3′,3″-indole]-5′-carboxamide], the 50% inhibitory concentration (IC50) was 1 to 50 nM.

`O=C(N[C@H]1CC[C@H](c2nnco2)CC1)[C@@H]1NC2(CC(CF)(CF)C2)[C@@]2(C(=O)Nc3cc(Cl)ccc32)[C@H]1c1cccc(Cl)c1F` [Example 123, (3′R, 4″S,5′R)-6′-chloro-4′-(3-chloro-2-fluorophenyl)-3,3-bis(fluoromethyl)-N-[trans-4-(1,3,4-oxadiazol-2-yl)cyclohexyl]-2″-oxo-1″,2″-dihydrodispiro[cyclobutane-1,2′-pyrrolidine-3′,3″-indole]-5′-carboxamide] gave an IC50 of 50 to 100 nM.

The compound `CN(C)C(=O)[C@@H]1CC[C@@H](NC(=O)[C@@H]2NC3(CC(CF)(CF)C3)[C@@]3(C(=O)Nc4cc(Cl)ccc43)[C@H]2c2cccc(Cl)c2F)CO1` [Example 124, (3′R, 4′S,5′R)-6″-chloro-4′-(3-chloro-2-fluorophenyl)-N-[(3R,6S)-6-(dimethylcarbamoyl)tetrahydro-2H-pyran-3-yl]-3,3-bis(fluoromethyl)-2″-oxo-1″,2″-dihydrodispiro[cyclobutane-1,2′-pyrrolidine-3′,3″-indole]-5′-carboxamide] registered an IC50 of 1 to 50 nM.

In turn, `CCN(C)C(=O)[C@@H]1CC[C@@H](NC(=O)[C@@H]2NC3(CCC(C)(C)CC3)[C@@]3(C(=O)Nc4cc(Cl)ccc43)[C@H]2c2ccnc(Cl)c2F)CO1` [Example 125, (3′R, 4′S,5′R)-6″-chloro-4′-(2-chloro-3-fluoropyridin-4-yl)-N-{(3R,6S)-6-[ethyl(methyl)carbamoyl]tetrahydro-2H-pyran-3-yl}-4,4-dimethyl-2″-oxo-1″,2″-dihydrodispiro[cyclohexane-1,2′-pyrrolidine-3′,3″-indole]-5′-carboxamide] had an IC50 of 1 to 50 nM.

Compound `CC1(C)CCC2(CC1)N[C@@H](C(=O)N[C@@H]1CC[C@@H](C(=O)NCCF)OC1)[C@H](c1ccnc(Cl)c1F)[C@]21C(=O)Nc2cc(Cl)ccc21` [Example 126, (3′R, 4′S,5′R)-6″-chloro-4′-(2-chloro-3-fluoropyridin-4-yl)-N-{(3R,6S)-6-[{2-fluoroethyl}carbamoyl]tetrahydro-2H-pyran-3-yl}-4,4-dimethyl-2″-oxo-1″,2″-dihydrodispiro[cyclohexane-1,2′-pyrrolidine-3′,3″-indole]-5′-carboxamide] had an IC50 of 1 to 50 nM.

`COCCN(C)C(=O)[C@@H]1CC[C@@H](NC(=O)[C@@H]2NC3(CCC(C)(C)CC3)[C@@]3(C(=O)Nc4cc(Cl)ccc43)[C@H]2c2ccnc(Cl)c2F)CO1` [Example 127, (3′R, 4′S,5′R)-6″-chloro-4′-(2-chloro-3-fluoropyridin-4-yl)-N-{(3R,6S)-6-[(2-methoxyethyl)(methyl)carbamoyl]tetrahydro-2H-pyran-3-yl}-4,4-dimethyl-2″-oxo-1″,2″=dihydrodispiro[cyclohexane-1,2′-pyrrolidine-3′,3″-indole]-5′-carboxamide]: the IC50 is 1 to 50 nM.

Compound `COCCNC(=O)[C@@H]1CC[C@@H](NC(=O)[C@@H]2NC3(CCC(C)(C)CC3)[C@@]3(C(=O)Nc4cc(Cl)ccc43)[C@H]2c2ccnc(Cl)c2F)CO1` [Example 128, (3′R, 4′S,5′R)-6″-chloro-4′-(2-chloro-3-fluoropyridin-4-yl)-N-{(3R,6S)-6-[(2-methoxyethyl)carbamoyl]tetrahydro-2H-pyran-3-yl}-4,4-dimethyl-2″-oxo-1″,2″-dihydrodispiro[cyclohexane-1,2′-pyrrolidine-3′,3″-indole]-5′-carboxamide] showed a concentration for half-maximal inhibition (IC50) of 1 to 50 nM.
